target: Recombinant human KIF18A (1-467His-tagged) protein (Homo sapiens (Human), UniProt Q8NI77); assay: KIF18A enzyme assay (microtubule-stimulated ATPase activity, ADP-Glo); assay type: biochemical; details: 30 nM KIF18A, ATP 75 μM, read-out: inhibitory activity against KIF18A IC50
Procedure, shortened: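 Baculovirus-expressed human KIF18A (1-467, His-tagged; 30 nM) preincubated 15 min at room temperature with compound (22-point 2-fold series) in pH 7.5 Tris buffer containing 30 μg/mL pig microtubules and 1 μM paclitaxel.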

Chain of Recombinant human KIF18A (1-467His-tagged) protein (Q8NI77 1-467): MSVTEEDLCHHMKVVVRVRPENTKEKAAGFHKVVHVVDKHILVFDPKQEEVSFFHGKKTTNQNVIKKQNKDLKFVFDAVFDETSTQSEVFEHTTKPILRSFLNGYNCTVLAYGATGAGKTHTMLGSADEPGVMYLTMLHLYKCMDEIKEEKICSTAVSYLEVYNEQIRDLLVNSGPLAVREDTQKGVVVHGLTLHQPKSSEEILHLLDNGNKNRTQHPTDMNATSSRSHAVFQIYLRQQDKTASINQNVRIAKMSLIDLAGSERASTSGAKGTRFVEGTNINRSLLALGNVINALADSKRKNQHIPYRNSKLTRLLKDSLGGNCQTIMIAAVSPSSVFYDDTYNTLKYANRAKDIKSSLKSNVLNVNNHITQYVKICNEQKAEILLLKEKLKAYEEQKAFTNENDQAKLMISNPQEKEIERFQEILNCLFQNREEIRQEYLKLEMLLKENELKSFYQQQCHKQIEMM
Chain of Recombinant human KIF18A (1-467His-tagged) protein (P02550 whole entry partner): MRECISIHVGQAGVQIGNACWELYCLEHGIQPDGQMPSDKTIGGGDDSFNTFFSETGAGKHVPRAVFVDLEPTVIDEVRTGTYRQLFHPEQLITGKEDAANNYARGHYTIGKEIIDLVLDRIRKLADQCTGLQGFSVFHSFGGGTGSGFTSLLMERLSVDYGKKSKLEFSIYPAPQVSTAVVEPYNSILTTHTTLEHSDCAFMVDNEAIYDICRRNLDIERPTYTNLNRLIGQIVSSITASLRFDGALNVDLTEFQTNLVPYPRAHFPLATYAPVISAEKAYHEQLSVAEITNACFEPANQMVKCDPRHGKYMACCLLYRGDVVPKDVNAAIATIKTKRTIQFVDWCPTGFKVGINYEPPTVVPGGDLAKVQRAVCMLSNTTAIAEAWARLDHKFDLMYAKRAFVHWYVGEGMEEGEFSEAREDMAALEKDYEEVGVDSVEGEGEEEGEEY
Chain of Recombinant human KIF18A (1-467His-tagged) protein (P02554 whole entry partner): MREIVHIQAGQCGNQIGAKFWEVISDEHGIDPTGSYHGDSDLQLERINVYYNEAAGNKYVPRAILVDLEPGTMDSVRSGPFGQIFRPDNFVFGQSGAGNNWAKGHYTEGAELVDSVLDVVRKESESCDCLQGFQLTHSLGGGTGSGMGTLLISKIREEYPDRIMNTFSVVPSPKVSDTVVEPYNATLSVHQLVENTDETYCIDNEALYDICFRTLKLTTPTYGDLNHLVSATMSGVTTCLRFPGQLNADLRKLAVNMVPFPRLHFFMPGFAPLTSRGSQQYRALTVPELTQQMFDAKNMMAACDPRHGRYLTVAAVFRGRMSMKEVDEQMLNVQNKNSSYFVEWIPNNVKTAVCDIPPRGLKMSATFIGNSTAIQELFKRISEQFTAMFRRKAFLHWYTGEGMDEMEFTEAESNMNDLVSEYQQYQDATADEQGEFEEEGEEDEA

| SMILES | IC50 [nM] |
| --- | --- |
| CN1CCc2cc(NC(=O)c3ccc(NS(=O)(=O)CCO)cc3N3CCC4(CC3)CC4)cc(OCCC(F)(F)F)c21 [Compound 261] | ≤ 100 |
| O=C(Nc1ccc(NS(=O)(=O)CCO)cc1N1CCC2(CC1)CC2)c1cc(OC2CCC2)c2occc2c1 [Compound 167] | ≤ 100 |
| CN1CCc2cc(C(=O)Nc3ccc(S(=O)(=O)NCCO)cc3N3CCC4(CC3)CC4)nc(OC3CCC3)c21 [Compound 375] | ≤ 100 |
| C[C@@H]1CN(c2nc(C(=O)Nc3ccc(NS(=O)(=O)[C@H](C)CO)cc3N3CCC4(CC3)CC4)cc3c2OCC3)CCO1 [Compound 112] | ≤ 100 |
| C[C@@H]1CN(c2cc(C(=O)Nc3ccc(NS(=O)(=O)CCO)cc3N3CCC4(CC3)CC4)cc3c2N(C)CC3)CCO1 [Compound 290] | ≤ 100 |
| C[C@H](CO)S(=O)(=O)Nc1ccc(NC(=O)c2cc3c(c(N4CCC(F)(F)CC4)c2)OCC3)c(N2CCC3(CC2)CC3)c1 [Compound 46] | ≤ 100 |
| CN1CCc2cc(C(=O)Nc3ccc(NS(=O)(=O)CCO)cc3N3CCC4(CC3)CC4)cc(N3CC4CC4C3)c21 (centres unmarked) [Compound 298] | ≤ 100 |
| Cn1ccc2cc(C(=O)Nc3ccc(NS(=O)(=O)CCO)cc3N3CCC4(CC3)CC4)cc(N3CC(F)(F)C3)c21 [Compound 420] | ≤ 100 |
| O=C(Nc1ccc(NS(=O)(=O)CCO)cc1N1CCC2(CC1)CC2)c1cc2c(c(N3CCOCC3)c1)OCC2 [Compound 44] | ≤ 100 |
| CC(C)(CO)Nc1nc(NC(=O)c2ccc(NS(=O)(=O)CCO)cc2N2CCC3(CC2)CC3)cc2c1OCC2 [Compound 75] | ≤ 100 |
| CN1CCc2cc(C(=O)Nc3ccc(S(=O)(=O)NCCO)cc3N3CCC4(CC3)CC4)cc(NC(C)(C)CO)c21 [Compound 315] | ≤ 100 |

Second part, the molecule after the results:

| IC50 [nM] | SMILES |
| --- | --- |
| ≤ 100 | C[C@H](CO)NS(=O)(=O)c1ccc(C(=O)Nc2cc3c(c(N4CCC(F)(F)CC4)c2)OCC3)c(N2CCC3(CC2)CC3)c1 [Compound 30] |
| ≤ 100 | C[C@@H]1CN(c2nc(NC(=O)c3ccc(NS(=O)(=O)[C@H](C)CO)cc3N3CCC4(CC3)CC4)cc3ccoc23)CCO1 [Compound 208] |
| ≤ 100 | C[C@H]1CN(c2nc(C(=O)Nc3ccc(NS(=O)(=O)CCO)cc3N3CCC4(CC3)CC4)cc3ccoc23)CCO1 [Compound 227] |
| ≤ 100 | CN1CCc2cc(NC(=O)c3ccc(NS(=O)(=O)CCO)cc3N3CCC4(CC3)CC4)cc(N3CCC4(CC4)C3)c21 [Compound 262] |
| ≤ 100 | CN1CCc2cc(C(=O)Nc3ccc(S(=O)(=O)NCCO)cc3N3CCC4(CC3)CC4)nc(N3CCC(C)(F)C3)c21 (centres unmarked) [Compound 376] |
| ≤ 100 | Cn1ccc2cc(C(=O)Nc3ccc(S(=O)(=O)NCCO)cc3N3CCC4(CC3)CC4)cc(N3CCC(F)CC3)c21 [Compound 441] |
| ≤ 100 | C[C@H]1CN(c2nc(NC(=O)c3ccc(S(=O)(=O)NCCO)cc3N3CCC4(CC3)CC4)cc3c2N(C)CC3)CCO1 [Compound 339] |
| ≤ 100 | C[C@@H]1CN(c2nc(C(=O)Nc3ccc(S(=O)(=O)NCCO)cc3N3CCC4(CC3)CC4)cc3ccn(C)c23)CCO1 [Compound 498] |
| ≤ 100 | O=C(Nc1cc2ccoc2c(N2CCC3(CC3)C2)n1)c1ccc(S(=O)(=O)NCCO)cc1N1CCC2(CC1)CC2 [Compound 214] |
| ≤ 100 | O=C(Nc1ccc(NS(=O)(=O)CCO)cc1N1CCC2(CC1)CC2)c1cc(N2CCC3(CC3)C2)c2occc2c1 [Compound 166] |
| ≤ 100 | O=C(Nc1ccc(S(=O)(=O)NCCO)cc1N1CCC2(CC1)CC2)c1cc2ccoc2c(N2CC(F)(F)C2)n1 [Compound 244] |
| ≤ 100 | CN1CCc2cc(C(=O)Nc3ccc(S(=O)(=O)NCCO)cc3N3CCC4(CC3)CC4)cc(N3CC(F)(F)C3)c21 [Compound 308] |
| ≤ 100 | Cn1ccc2cc(NC(=O)c3ccc(S(=O)(=O)NCCO)cc3N3CCC4(CC3)CC4)nc(CC(C)(C)CO)c21 [Compound 475] |
| ≤ 100 | C[C@H](CO)NS(=O)(=O)c1ccc(C(=O)Nc2cc(N3CCO[C@H](C)C3)c3occc3c2)c(N2CCC3(CC2)CC3)c1 [Compound 160] |
| ≤ 100 | CC1(F)CCN(c2nc(NC(=O)c3ccc(S(=O)(=O)NCCO)cc3N3CCC4(CC3)CC4)cc3ccoc23)C1 (centres unmarked) [Compound 216] |

— patent publication US20250197382A1, “KIF18A INHIBITOR” (WIGEN BIOMEDICINE TECHNOLOGY (SHANGHAI) CO., LTD., priority 2022, published 2025)
